Source: US9566251B2, “Volatile anesthetic compositions and methods of use” (Board of Regents, The University of Texas System, priority 2008, dated 2017)
Several values for one entry are separate records, joined by “and”; a condition that tells them apart may be missing. Identical values can stand only once.

Key:
[1] = Isoflurane stability: weighing remaining isoflurane in uncapped vials over time; type: physicochemical; conditions: uncapped vial in fume hood
Description: In the Examples that follow, the stability of isoflurane in the described compositions was determined in two ways. First, the compositions were examined for the presence of phase separation at the macroscopic level. Secondly, isoflurane content of the compositions was determined by weighing the remaining isoflurane in the composition when they were left uncapped over time. […] The other vials received varying amounts of isoflurane. They were left uncapped in the hood. Over time, the vials were weighed to see if the isoflurane stayed in the composition or had evaporated. The amount evaporated over time in the vehicle control was subtracted from that in the isoflurane-containing composition. The pure form of isoflurane is a volatile anesthetic. In order to assess the volatility of isoflurane, two vials received the indicated amounts of pure form isoflurane. The vials were placed in the chemical fume hood and left uncapped. The vials were weighed at the indicated times to determine the amount of evaporated isoflurane. As it is shown in the table below 0.7893 g isoflurane was evaporated within 3 hours, while 3.4825 g isoflurane took approximately 8 hrs to evaporate completely. These amounts of isoflurane are similar to the amounts of isoflurane that were used to prepare the isoflurane compositions in the Examples that follow.

rats = assay: Plantar Heat Stimulation Test after subcutaneous injection into the hindpaw; type: in vivo; conditions: rat, 100 μl subcutaneously into one hindpaw; for antinociceptive effect (paw withdrawal latency, treated vs untreated paw): cutoff 22 seconds
Description: Rats are assessed for response to thermal stimulation using the Plantar Heat Stimulation Test (i.e., radiant heat) (Planar Analgesia Instrument, Ugo Basile, Italy) by measuring paw withdrawal latency. 100 μl of pureform Isoflurane or 100 μl of 2% Lidocaine was injected subcutaneously into the planar surface of one hindpaw of each rat. For each rat, the untreated, contralateral hindpaw served as its own control.
After the rats acclimated for 15 minutes under acrylic boxes that allow minimal movement, a heat source was positioned beneath the mid-plantar surface of the hind paw. Withdrawal latency was defined as the period of time from the beginning of the thermal stimulation to the brisk withdrawal of the hind paw. To avoid tissue damage, a cutoff time of 22 seconds was set. Thermal stimulation was applied three times to each hind paw at an interstimulus interval of 3-5 minutes. Thermal withdrawal latency was assessed before and after the treatment. An increase in the withdrawal latency in the treated paw compared to the control paw was assessed as analgesic activity of the tested formulation.
For statistical comparison, student paired t-test analysis was used. Differences were considered significant at P<0.05 (# P<0.05 isoflurane versus control n=4; * P<0.05 lidocaine versus control n=3).

Sprague-Dawley rats = assay: Hotplate test (thermal withdrawal latency) after intrathecal injection of volatile anesthetic; type: in vivo; conditions: rat; for Thermal withdrawal latency, Average / Thermal withdrawal latency, Group Average: 2 microliters intrathecal; for Thermal withdrawal latency, Average: average per rat; for Thermal withdrawal latency, Group Average: group of four rats, saline control 8.33 seconds; for thermal latency time (analgesic effect): intrathecally delivered dose of 2 microliters
Description: This study was designed to evaluate efficacy of direct intrathecal injection of volatile anesthetic in reducing pain and providing analgesia. The study was conducted over a one (1) month period using the volatile anesthetics isoflurane and sevoflurane injected directly intrathecally or dissolved in saline as shown in the studies below. The subject animal used was the rat, since the rat has a well-established model of pain/analgesia testing. In particular, Sprague-Dawley rats weighing over 350 gm were used. The rats were anesthetized with pentobarbital (50 mg/kg), and the anesthetic depth of the animals was determined by corneal reflex and paw withdrawal reflex to a noxious stimulus.
[…]. A midline surgical dissection of the posterior neck muscles was performed to obtain access to the occipito-atlantoid membrane. This membrane was identified and then dissected. A sterile polyethylene catheter was introduced in the subarachnoid space until the lumbar enlargement of the spinal cord (approximately 7-8 cm measured in each animal). The surgical wound was closed, first suturing the neck muscles with 3-0 silk sutures and then closing the skin incision with staples.
After the surgery, the rats were moved to their cages and a radiant lamp was placed over the cages so that the rats would not undergo anesthetic-induced hypothermia. The rats were continuously monitored from the end of the surgery until they were fully awake. Rats showing any motor impairment after surgery were euthanized.
On the fifth day after surgery, those rats without wound infection or motor dysfunction were transported to the pain behavioral lab to enter the intrathecal study with volatile anesthetics. Twelve rats were selected for the study. All these rats had intrathecal catheters. Isoflurane (1-chloro-2,2,2-trifluoroethyl difluoromethyl ether) and sevoflurane (fluoromethyl 2,2,2-trifluoro-1-(trifluoromethyl)ethyl ether) were used as the halogenated ether compounds. Both of these are halogenated volatile anesthetics, with isoflurane manufactured by Baxter and sevoflurane manufactured by Abbott Laboratories. The 12 rats were divided into 3 groups of four rats each for study A and B.
In the second group, 2 microliters of isoflurane was injected via the intrathecal catheter into each rat. This catheter was also flushed with preservative-free normal saline. This group was then subjected to pain behavioral testing.
In the third group, 2 microliters of sevoflurane was injected via the intrathecal catheter into each rat. This catheter was also flushed with preservative-free normal saline. This group was then subjected to pain behavioral testing.
A “hotplate” behavioral test was used to evaluate pain perception and analgesia. The pain behavioral testing model used in these studies have been well established by Tony Yaksh. (See, for example Chaplan et al., 1994, J. Neurosci. Methods, 53:55-63; Yaksh et al., 2001, J. Appl. Physiol., 90:2386-2402; Kim and Chung, 1992, Pain, 50:355-363.; Sorkin et al., 2001, Anesthesiology, 95:965-973). This test involves determining how quickly a rat will withdraw its hind paw in response to a noxious stimulus such as a radiant heat source placed directly underneath its paw. This time for withdrawal is known as “thermal withdrawal latency”.
Rats were transferred for testing onto a modified Hargreaves apparatus with a heated glass plate maintained at 25° C. (see Hargreaves et al., 1998, Pain, 32:77-88). A focused projection bulb below the plate was aimed at the mid-plantar surface of the paw. A photodiode-activated timer measured the withdrawal latency, and a cutoff time of 25 seconds was used to prevent tissue damage. Thermal withdrawal latency to radiant heat was measured at 5 minutes and 30 minutes after each intrathecal injection. Each paw was tested three times, and the results were averaged. The below data was collected for both the right and left hind paws: […]

Compound | time until isoflurane was evaporated ([1]; 0.7893 g pure form) | time to evaporate completely ([1]; 3.4825 g pure form) | duration of antinociceptive effect (rats) | antinociceptive effect (paw withdrawal latency, treated vs untreated paw) (rats) | antinociceptive effect began at (rats; time after administration) | Thermal withdrawal latency, Average (Sprague-Dawley rats; 5 minutes after injection) | Thermal withdrawal latency, Group Average (Sprague-Dawley rats; 5 minutes after injection) | Thermal withdrawal latency, Average (Sprague-Dawley rats; 30 minutes after injection) | thermal latency time (analgesic effect) (Sprague-Dawley rats) | antinociceptive effect peaked at (rats; time after administration) | antinociceptive effect returned to baseline levels at (rats; time after administration)
FC(F)OC(Cl)C(F)(F)F (centres unmarked) [Isoflurane, 1-chloro-2,2,2-trifluoroethyl difluoromethyl ether] | ≤ 3 h | approximately 8 hrs | continued throughout the experiment | significant antinociceptive effect | 25 min | 19.25 s and 18.21 s and 18.63 s and 17.95 s | 18.51 s | 9.48 s and 8.93 s and 10.52 s and 9.21 s | significantly increased | – | –
CCN(CC)CC(=O)Nc1c(C)cccc1C [Lidocaine] | – | – | – | significant antinociceptive effect | 5 min | – | – | – | – | 15 min | 45 min
FCOC(C(F)(F)F)C(F)(F)F [Sevoflurane, fluoromethyl 2,2,2-trifluoro-1-(trifluoromethyl)ethyl ether] | – | – | – | – | – | 14.65 s and 13.82 s and 13.14 s and 12.98 s | 13.65 s | 8.61 s and 8.35 s and 8.89 s and 9.54 s | significantly increased | – | –
